The target of assay [1] is T1, Poly [ADP-ribose] polymerase tankyrase-2 (Homo sapiens, UniProt Q9H2K2).
T1 sequence (Q9H2K2 whole entry): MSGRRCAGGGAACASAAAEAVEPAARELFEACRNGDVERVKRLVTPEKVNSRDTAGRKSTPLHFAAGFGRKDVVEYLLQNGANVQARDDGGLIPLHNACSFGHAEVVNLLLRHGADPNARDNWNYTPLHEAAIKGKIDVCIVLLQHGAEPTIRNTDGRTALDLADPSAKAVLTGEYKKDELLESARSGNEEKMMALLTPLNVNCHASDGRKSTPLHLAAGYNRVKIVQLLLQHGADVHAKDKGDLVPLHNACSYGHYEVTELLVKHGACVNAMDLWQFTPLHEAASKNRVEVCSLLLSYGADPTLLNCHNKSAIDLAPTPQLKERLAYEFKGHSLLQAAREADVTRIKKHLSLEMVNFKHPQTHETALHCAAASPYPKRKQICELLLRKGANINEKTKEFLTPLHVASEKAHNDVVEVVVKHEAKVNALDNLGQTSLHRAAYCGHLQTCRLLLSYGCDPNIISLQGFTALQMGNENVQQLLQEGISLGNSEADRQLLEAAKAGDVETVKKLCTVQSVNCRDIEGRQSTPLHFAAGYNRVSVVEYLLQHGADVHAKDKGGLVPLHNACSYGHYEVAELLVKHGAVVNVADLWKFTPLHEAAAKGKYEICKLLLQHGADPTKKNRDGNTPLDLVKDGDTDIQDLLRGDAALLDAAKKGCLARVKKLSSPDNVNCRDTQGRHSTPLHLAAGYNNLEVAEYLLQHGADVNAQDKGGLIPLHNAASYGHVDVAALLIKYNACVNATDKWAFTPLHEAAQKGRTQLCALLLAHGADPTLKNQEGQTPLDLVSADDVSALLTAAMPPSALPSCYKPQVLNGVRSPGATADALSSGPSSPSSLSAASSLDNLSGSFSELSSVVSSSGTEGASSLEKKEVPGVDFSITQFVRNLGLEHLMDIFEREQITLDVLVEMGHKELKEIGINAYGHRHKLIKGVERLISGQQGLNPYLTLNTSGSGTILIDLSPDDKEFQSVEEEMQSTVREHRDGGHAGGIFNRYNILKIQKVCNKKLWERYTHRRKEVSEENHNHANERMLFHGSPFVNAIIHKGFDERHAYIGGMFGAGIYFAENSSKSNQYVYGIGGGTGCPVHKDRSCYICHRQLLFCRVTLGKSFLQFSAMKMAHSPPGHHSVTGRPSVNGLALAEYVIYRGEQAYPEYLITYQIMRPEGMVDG
As to the kind of experiment: Inhibition of TNKS2 (unknown origin) expressed in HEK293 cells assessed as inhibition of Wnt3a-induced Wnt/beta-catenin signaling after 24 hrs by luciferase reporter gene assay. It is filed as cell-based. (In a reporter assay the amount or activity of a reporter protein is the signal.)

Assay [2] deals with T1, Poly [ADP-ribose] polymerase tankyrase-2. As to the kind of experiment: Inhibition of TNKS2 (unknown origin) transfected in human SW480 cells assessed as inhibition of Wnt3a-induced Wnt/beta-catenin signaling after 48 hrs by ST-luciferase reporter gene assay. It is filed as cell-based.
Assay [3] shares this target. As to the kind of experiment: Inhibition of human TNKS2 (873 to 1162 residues) assessed as reduction in NAD+ consumption by fluorescence assay.

A value given as a limit tells only on which side of the number the result lay.

Broadly, the IC50 is the concentration that gives 50% inhibition.

As for `N#Cc1ccc2c(c1)[nH]c(=O)n2[C@H]1CC[C@H](c2nnc(-c3ccncn3)n2-c2ccccc2Cl)CC1`, the IC50 was determined as 120 nM in assay [1], 1490 nM in assay [2] and 330 nM in assay [3].

For `N#Cc1ccc2c(c1)[nH]c(=O)n2-c1ccc(-c2nnc(-c3ccncn3)n2-c2ccccc2Cl)cc1`, the values for the IC50 in assay [1] and in assay [3] were more than 10000 nM and 340 nM, respectively.

On to `O=c1[nH]c2ccccc2n1[C@H]1CC[C@H](c2nnc(-c3ccncn3)n2-c2ccccc2Cl)CC1`, for which the 50% inhibitory concentration (IC50) in assay [1] was 1060 nM; in assay [2], 1800 nM; in assay [3], 430 nM.

On to `O=c1[nH]c2ccccc2n1[C@H]1C[C@H](c2nnc(-c3ccncn3)n2-c2ccccc2Cl)C1`, for which the IC50 in assay [1] was 200 nM; in assay [2] it was 410 nM; in assay [3], 9.8 nM.
